Here are results for seven compounds from patent US8927728B2, “Dipeptide acetylene conjugates and a method for photocleavage of double strand DNA by dipeptide acetylene conjugates” (The Florida State University Research Foundation, Inc., priority 2011, dated 2015).

A short description of data set [1]: Fluorescence quenching by triethylamine (Stern-Volmer). As to conditions: Et3N as a quencher; determined from Ksv and singlet lifetime. It is filed as physicochemical. The method, then:
The fluorescence quenching by triethylamine (Et3N) was tested in order to gauge relative efficiencies of these compounds as DNA photo-oxidizers. […] The measured singlet lifetimes allowed us to determine the quenching rate constant, kq, which in this system, should be very close in magnitude to the rate of electron transfer, kET. The 2-3-fold increase in the rate of electron transfer from Et3N to excited singlet state of the meta- and ortho-isomers in comparison to the para-isomer is consistent with the well-known photochemical ortho, meta effect of an acceptor substituent. See Zimmerman, H. E., The Meta Effect in Organic Photochemistry: Mechanistic and Exploratory Organic Photochemistry, J. Am. Chem. Soc., 1995, 117, 8988-8991. doi: 10.1021/ja00140a014 and Zimmerman, H. E.; Alabugin, I. V. J. Am. Chem. Soc. 2001, […]. doi: 10.1021/ja002402c.

A further data set concerns pBR322 plasmid DNA. Nature of the data set: Plasmid relaxation assay for DNA photocleavage. It counts as biochemical. The conditions noted are these: 30 μM/base pair pBR322, pH 6, 7 and 8; for DNA cleavage efficiency: 15 μM lysine conjugate. Here is the method: The present invention is additionally directed to methods of forming a double strand cleavage in DNA, wherein compounds having the above Structures are contacted with and bind to double stranded DNA. The pH-dependency of DNA-cleavage of the two bis-lysine conjugates was investigated. The top of FIGS. 6A and 6B depicts the results of the plasmid relaxation assay for DNA photocleavage with 15 μM of acetylenic conjugates (3) (FIG. 6A) and (5) (FIG. 6B) and […] (b.p.) of pBR322 plasmid DNA at pH range of 6-9 after 10 min. of UV (>310 nm) irradiation. The bottom of each of FIGS. 6A and 6B are graphs of quantified cleavage data as a function of pH for conjugates (3) (FIG. 6A) and (5) (FIG. 6B). The reported values represent the average of three experiments. Code: Form I, diamond; Form II, square; Form III, triangle.
The plasmid relaxation assay experiments were carried out on 15 μM of lysine conjugate with 30 μM/base pair of pBR322 plasmid DNA at pH 6, 7 and 8.
Plasmid DNA Photocleavage. pBR322 plasmid DNA (4,361 bp; from BioLabs Inc., 1 μg/μL solution in 10 mM Tris-HCl (pH 8.0), and 1mM EDTA buffer) was diluted to a concentration of 0.01 μg/μL. The solution containing cleavage agent, DNA (30 μM/bp) in 20 mM sodium phosphate buffer was incubated for 1 hour at 30° C. Samples were placed on ice at a distance of 20 cm from 200 W Hg—Xe lamp (Spectra-Physics, Laser & Photonics Oriel Instruments with long pass filter with 300 nm cut-on wavelength).
Electrophoretic Analysis. The gel electrophoresis was carried out in lx TBE buffer at 80 V using Miligel FisherBiotech Horizontal Electrophoresis System. All gels were run on 1% agarose slab gels. Before loading, the DNA samples were mixed with 0.33 volume of tracking dye containing bromophenol blue (0.25%) and glycerol (30%) in water. After staining in ethidium bromide solution (2 μg/mL) for 1 hour, the gel was washed with water and pictures were taken. The relative quantities of the supercoiled, nicked, and linear DNA were calculated by integrating the “area” of each spot by the image analyzer software Total/Lab (Nonlinear Dynamics Ltd., UK). […]

The next data set concerns DNA. As to conditions: literature value; cited from earlier work.
For data set [2], the system named is A375 cells (Human Melanoma). Put plainly: Cell proliferation (MTT) assay. It counts as cell-based. The conditions noted are these: A375, after 10 min UV irradiation at 360 nm. The method, then: The ability of compounds (15), (16), and (17) to inhibit cell proliferation in human melanoma cell lines was tested in the dark and under photoactivation. See FIGS. 9A and 9B, which depict cell proliferation assays in A375 cells (Human Melanoma) exposed to bis-lysine conjugates (15) (square), (16) (up-pointing triangle) and (17) (down-pointing triangle) in dark (FIG. 9A) and after 10 min. of UV (360 nm) irradiation (FIG. 9B).
MTT Assay. A375 cells were seeded at 2000 cells per well in a 96-well plate. Seven 2-fold serial dilutions of the compounds were added to the cells in triplicate. Concentrations were from 1 to 0.016 μM of compounds. After 4 hs of incubation with the compounds, cells were UV-irradiated for ten minutes at 365 nm (UV transluminator, Spectronomics Corp. model TR-365R). After 72hs of incubation, MTT (Sigma® cat#M2128) was added to cells to a final concentration of 1.25 mg/mL and incubated for 60 minutes. Cells were centrifuged at 900 g for 5 minutes at room temperature. Media was replaced with DMSO and absorbance will be measured in a plate reader at 570 nm.

For data set [3] the following is noted: from Carey, Organic Chemistry, 6th ed.; cited from earlier work.

Structures can show the parent of a compound that is named as a salt. Marks after values point to notes of the source that are not given here.

In data set [1], `CC(=O)Nc1ccccc1C#Cc1c(F)c(F)nc(F)c1F` [(5) (ortho), N-(2-((Perfluoropyridin-4-yl)ethynyl)phenyl) acetamide] returned a kq (quenching rate constant) of 1.43e+10 M⁻¹ s⁻¹.
The same measure, in the same setting: in the case of `CC(=O)Nc1ccc(C#Cc2c(F)c(F)nc(F)c2F)cc1` [(3) (para), N-(4-((Perfluoropyridin-4-yl)ethynyl)phenyl)acetamide] it was 5.64e+09 M⁻¹ s⁻¹.
`NCCCC[C@H](N)C(=O)Nc1cccc(C#Cc2c(F)c(F)nc(F)c2F)c1` [(16), (S)-2,6-Diamino-N-(3-((perfluoropyridin-4-yl)ethynyl)phenyl)hexanamide Dihydrochloride]: the DNA cleavage efficiency result in the data set with pBR322 plasmid DNA is reported as “less DNA cleavage than conjugate (15)”.
With `CC(=O)Nc1cccc(C#Cc2c(F)c(F)nc(F)c2F)c1` [(4) (meta), N-(3-((Perfluoropyridin-4-yl)ethynyl)phenyl)acetamide], in data set [1], the kq (quenching rate constant) was found to be 1.36e+10 M⁻¹ s⁻¹.
With calicheamicin, in the data set on DNA, the “double strand breaks formed” value is listed as 25-33%.
Regarding `NCCCC[C@H](N)C(=O)Nc1ccccc1C#Cc1c(F)c(F)nc(F)c1F` [(17), (S)-2,6-Diamino-N-(2-((perfluoropyridin-4-yl)ethynyl)phenyl)hexanamide Dihydrochloride], the phototoxicity entry in data set [2] is recorded as “some phototoxicity”. For the same compound, in the data set with pBR322 plasmid DNA, the DNA cleavage efficiency entry was “least efficient DNA cleavage”. Further, the double-strand breaks entry in the data set on pBR322 plasmid DNA (15 μM) is recorded as “has not produced any double-strand breaks”.
Consider `NCCCC[C@H](N)C(=O)O` [Lysine], for which, in data set [3], the pKa1 is 8.95^b and the pKa2 is given as 10.53^b.
